Assay results as given in paper PMC6709224, “PIM-Related Kinases Selectively Regulate Olfactory Sensations in Caenorhabditis elegans” (eNeuro, 2019).

How the values were obtained:
Assay type in all cases: biochemical
PIM-1 [1] = molecular target: T1, PIM-1 (Homo sapiens, UniProt P11309); test: radioactive in vitro kinase assay (autophosphorylation and NFATC1 […]-418 phosphorylation); conditions: 10 µM inhibitor, 10-20 min pre-incubation, gamma-32P-ATP, 0.1% DMSO control
T1 construct: gene PIM1; full-length short isoform (313 residues, recalled), GST fusion expressed in bacteria

PRK-2 [2] = molecular target: T2, PRK-2 (Caenorhabditis elegans, UniProt Q20443); test: as above; conditions: 10 µM inhibitor, 10-20 min pre-incubation, gamma-32P-ATP, 0.1% DMSO control
T2 construct: full-length, GST fusion in pGEX-6P-2, expressed in bacteria
T2 sequence (Q20443 1-441): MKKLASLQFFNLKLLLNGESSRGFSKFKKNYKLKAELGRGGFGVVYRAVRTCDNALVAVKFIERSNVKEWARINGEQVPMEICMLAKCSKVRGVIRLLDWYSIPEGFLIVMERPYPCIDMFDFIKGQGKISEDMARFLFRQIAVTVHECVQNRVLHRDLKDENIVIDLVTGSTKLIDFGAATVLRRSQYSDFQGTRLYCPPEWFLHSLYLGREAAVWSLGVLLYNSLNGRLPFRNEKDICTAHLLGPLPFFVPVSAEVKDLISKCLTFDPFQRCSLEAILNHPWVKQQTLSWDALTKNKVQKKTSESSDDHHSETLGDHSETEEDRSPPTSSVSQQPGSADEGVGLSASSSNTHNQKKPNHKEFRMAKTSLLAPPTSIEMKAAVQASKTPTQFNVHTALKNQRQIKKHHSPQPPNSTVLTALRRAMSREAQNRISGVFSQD

PIM-1 [3] = molecular target: T1, PIM-1; test: radioactive in vitro kinase assay, autoradiography; conditions: labelled compound; autophosphorylation and GST-NFATC1 (1-418) as acceptor
PRK-2 [4] = molecular target: T2, PRK-2; test: radioactive in vitro kinase assay, autoradiography; conditions: labelled compound; autophosphorylation and GST-NFATC1 (1-418) as acceptor

T1 sequence (P11309 whole entry, the tested form may be a part, canonical isoform): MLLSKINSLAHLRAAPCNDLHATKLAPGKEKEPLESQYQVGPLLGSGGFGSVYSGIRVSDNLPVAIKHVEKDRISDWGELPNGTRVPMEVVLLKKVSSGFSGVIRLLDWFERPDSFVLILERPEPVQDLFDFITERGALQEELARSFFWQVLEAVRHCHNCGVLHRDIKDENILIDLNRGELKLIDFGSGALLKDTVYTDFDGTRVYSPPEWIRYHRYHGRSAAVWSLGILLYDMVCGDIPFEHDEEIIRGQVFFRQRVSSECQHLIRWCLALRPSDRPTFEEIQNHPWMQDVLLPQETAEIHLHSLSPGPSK

## O=Cc1c[nH]c2c1ccc1c3ccccc3[nH]c12 [DHPCC-9]
PIM-1 [1]
  relative phosphorylation at 10 μM: DHPCC-9 was able to inhibit autophosphorylation of not only PIM-1, but also PRK-2
PRK-2 [2]
  relative phosphorylation at 10 μM: DHPCC-9 was able to inhibit autophosphorylation of not only PIM-1, but also PRK-2

## Nc1ncnc2c1ncn2[C@@H]1O[C@H](COP(=O)(O)OP(=O)(O)OP(=O)(O)O)[C@@H](O)[C@H]1O [γ-32P-ATP]
PIM-1 [3]
  radioactive in vitro kinase assay, autoradiography: both PIM-1 and PRK-2 were able to autophosphorylate themselves
PRK-2 [4]
  radioactive in vitro kinase assay, autoradiography: both PIM-1 and PRK-2 were able to autophosphorylate themselves
